row,SMILES,melting point [°C]
1,COC(=O)c1cc2cc(C=O)c3ccccc3c2s1,208
2,COc1cc(C=CC(=O)CCCCO)cc(OC)c1,78 to 80
3,COc1cccc(NC(=O)NCc2ccc3c(c2)C(=O)N(C2CCC(=O)NC2=O)C3=O)c1 (stereo not given),323 to 325
4,COc1ccc(S(=O)(=O)N2CCc3cccc(-c4ccc(C=O)cc4)c32)cc1,152 to 153
5,CC1=CC(C)(C)c2ccc(Oc3ccc([N+](=O)[O-])cc3)cc2O1,80
6,Nc1cc(OCc2ccccc2)c(OCc2ccccc2)cn1,111 to 113
7,COc1ccccc1NC(=S)c1ccc(C(F)(F)F)cc1,118 to 120
8,Cc1cccc(N2CCOC2=O)c1CNc1cccn2c(Cl)c(C)nc12,137 to 139
9,OCC#Cc1cccc2ccncc12,138 to 139
10,Cc1cc(NC(=O)Nc2cccc3c2C2CCCCN2C3=O)no1 (stereo not given),156
11,CN(C)CCNC(=O)Cc1ccc(OCc2ccc(-c3ccccc3)cc2)cc1,160 to 161
12,O=C(CC(F)=C(F)F)Oc1ccc([N+](=O)[O-])cc1,58 to 62
13,COc1cccc2c1C(=O)OC2c1ccccc1 (stereo not given),135 to 138
14,Nc1cc(O)nn1-c1c(Cl)cc(Cl)cc1Cl,221 to 223
15,O=C(c1ccc(Cc2ccc(F)cc2)o1)c1occ(Br)c(=O)c1O,191 to 192
16,CC(C(=O)O)c1ccc([N+](=O)[O-])c(F)c1 (stereo not given),74 to 77
17,Nc1cc(C(F)(F)F)c(-c2cc(Br)c(N)cc2C(F)(F)F)cc1Br,154 to 157
18,O=C(Nc1ccccc1)N1CC(Oc2ccc(C(F)(F)F)cc2)C1,174 to 176
19,CC(C)(C)NC(=O)N1CCN(Cc2ccccc2)C[C@@H]1C(=O)N(CCCn1ccnc1)Cc1ccccc1,57.8
20,CCOC(=O)CCC(=O)N[C@@H](CC(C)C)C(=O)N[C@@H](C(C)C)[C@@H](O)c1c(-c2ccccc2)c1=O,111 to 112
21,O=C1OC2(CC(c3ccc(F)cc3)=NO2)c2ccccc21 (stereo not given),142 to 145
22,CCCC(NC(C)C(=O)N1C(C(=O)O)CC2CCCCC21)C(=O)OCC (stereo not given),86 to 92
23,CC(=O)c1ccc(Oc2ccc(I)cc2)cc1,99 to 101
24,CCN(CCNS(=O)(=O)c1ccc(C)cc1)C(=O)c1ccccc1C(=O)c1ccc(Cl)cc1,145 to 147
25,COc1cc(Nc2c(C#N)cnc3cc(C#CCCN(C)C)c(OC)cc23)c(Cl)cc1Cl,177 to 179

row,SMILES,melting point [°C]
1,COC(=O)c1nc(Cl)nc(NCc2ccco2)c1Cl,110 to 112
2,C[C@H](c1ccccc1)n1c(=O)[nH]c2ncc(-c3ccc(-c4nc[nH]n4)cc3)nc21,258 to 260
3,c1ccc(CN2CCN(CCCCc3c[nH]c4ccc(-n5cnnc5)cc34)CC2)nc1,115 to 118
4,CCS(=O)(=O)CCNC(=O)C1=C(C(=O)Nc2ccc(Cl)cc2F)CCCC1,150 to 151
5,CCOC(=O)c1c(CN2CCCC2)nc2cc(OC)c(OC)cc2c1-c1ccc(OC)c(OC)c1,139 to 140
6,O=C(NC[C@@H]1CN2C(=O)C[C@H]2O1)c1cc(F)ccc1F (racemic),88.8 to 90.7
7,Cc1ccc(CSc2nc3cc4c(cc3[nH]2)CCC4)nc1,157 to 158
8,COc1ccc(Cc2nc3cccc([N+](=O)[O-])c3o2)cc1OC1CCCC1,95 to 98.5
9,O=C(Cl)Cc1ccc([N+](=O)[O-])cc1,47.5 to 49
10,CCOC(=O)c1c(-c2ccccc2)c2cc(Cl)ccc2n1CC#N,119 to 120
11,CC1(C)CC(NS(C)(=O)=O)c2cc(OCc3ccccc3)ccc2O1 (stereo not given),162 to 165
12,CC(C)[C@@H](CO)Nc1nc(Nc2cccc(NS(C)(=O)=O)c2)nc2[nH]ccc12,106 to 109
13,Cc1ncc2c(c1OCC(=O)O)COC2c1ccccc1 (stereo not given),220
14,CC(C)(O)c1ccc(Cl)c2nc3n(c12)CCCN3c1ccc(Cl)cc1Cl,216 to 218
15,NC(=O)Cc1ccc(OC[C@@H]2CO2)cc1,168 to 169
16,O=C(NCCO)c1cccc(-c2ccc3c(c2)N(Cc2cccc(Cl)c2Cl)CC3)c1,158 to 159
17,O=[N+]([O-])c1ccc(Nc2cccc(C(F)(F)C(F)(F)C(F)(F)C(F)(F)C(F)(F)C(F)(F)C(F)(F)C(F)(F)F)c2)c([N+](=O)[O-])c1,124 to 125
18,CC(C)(C)n1cnc(-c2ccc(F)cc2)c1-c1ccncc1,199
19,O=C(/C=C/c1ccc(C(=O)Nc2cccc(Nc3nc(-c4cccnc4)cs3)c2)cc1)NO,101
20,O=C(Nc1cccnc1)N1CCc2cc(C(F)(F)F)ccc21,188 to 189
21,CNC(=O)C1(CCC#N)c2ccccc2-c2ccccc21,185 to 187
22,CSc1ccc(COc2cc(S(=O)(=O)C(C)C)cc(C#N)c2N)nc1,156 to 157
23,COc1cccnc1C(=O)NCCNC(=O)OC(C)(C)C,115
24,CCCNC(=O)Oc1ccc(C(O)(CC)c2ccc(F)cc2)cc1 (stereo not given),107 to 108
25,COC(=O)c1cc(C(=O)Nc2nccs2)c2cc(Cc3ccc(F)cc3)cnc2c1O,258 to 259

# Source: a melting point compilation (Tetko et al.; mined from patent text by program, amines drawn as free bases though some values may be those of a salt)
